Experiments:
[1] = test system: Staphylococcus aureus (S. aureus) 11540 strain; assay: standard microdilution assay to determine minimum inhibitory concentrations (MICs), S. aureus; format: cell-based
Protocol: (§1) The in vitro activity of the compounds of the present disclosure can be determined. Antimicrobial testing is typically performed to determine the minimum inhibitory concentration (MIC). Minimum inhibitory concentrations (MICs) are determined by the microdilution method in a final volume of 100 μl according to protocols outlined by The Clinical and Laboratory Standards Institute (CLSI). Performance standards for reference strains are assessed within the same experimental design to maintain quality control. See, for example, Clinical Laboratory Standards Institute: Methods for dilution antimicrobial susceptibility tests for bacteria that grow aerobically M7-A8. Approved Standard-Eighth Edition. Wayne, PA: CLSI; December 2008: and Clinical Laboratory Standards Institute: Performance Standards for Antimicrobial Susceptibility Testing M100-S20; Approved Standard-Twentieth Edition. Wayne, PA: CLSI; June 2010. The compounds of the present disclosure were tested for antimicrobial activity. The Compounds 1-122 were run against Eschericia coli (E. coli) strain ATCC25922 and against Staphylococcus aureus (S. aureus) 11540 strain using a standard microdilution assay to determine minimum inhibitory concentrations (MICs). […] It will be recognized by one skilled in the art that the compounds can be assessed against other bacterial organisms and that the presentation of data for activity against Eschericia coli and Staphylococcus aureus are illustrative and in no way is intended to limit the scope of the present disclosure. The compounds of the present disclosure can be assayed against a range of other microorganisms depending upon the performance activity desired to be gathered. Furthermore, the “+” and “−” representation and the selection of a cutoff value of 16 micrograms/mL is also illustrative and in no way is intended to limit the scope of the present disclosure.

[2] = test system: Eschericia coli (E. coli) strain ATCC25922; assay: standard microdilution assay to determine minimum inhibitory concentrations (MICs), E. coli; format: cell-based; settings: Escherichia coli
Protocol: as §1

Compound | MIC [1] [µg/mL] | MIC [2] [µg/mL]
C=CCN1[C@H](CCSC(=N)N)CCC[C@H]1c1ccc(-n2cc3cc(-c4cc(CCC[C@H](C)N)cc(Cl)c4F)[nH]c3nc2=O)cc1 [Compound 46] | ≤ 16 | ≤ 16
C[C@H](N)CCO[C@H]1CNC(c2cc3cn(-c4ccc([C@@H]5CCC[C@@H](CCSC(=N)N)N5)cc4)c(=O)nc3[nH]2)C1 (stereo partly shown) [Compound 47] | ≤ 16 | ≤ 16
N=C(N)SCC[C@@H]1CCC[C@@H](c2ccc(-n3cc4cc(C5C[C@@H](OCc6ccccc6)CN5)[nH]c4nc3=O)cc2)N1 (stereo partly shown) [Compound 49] | ≤ 16 | ≤ 16
C=C[C@H](N)CCCc1cc(Cl)c(F)c(-c2cc3cn(-c4ccc([C@@H]5CCC[C@@H](CCSC(=N)N)N5C)cc4)c(=O)nc3[nH]2)c1 [Compound 50] | ≤ 16 | ≤ 16
N=C(N)SCC[C@@H]1CCC[C@@H](c2ccc(-n3cc4cc(C5C[C@H]6CCCC[C@@H]6N5)[nH]c4nc3=O)cc2)N1 (stereo partly shown) [Compound 51] | ≤ 16 | ≤ 16
C[C@H](N)CCCc1cc(Cl)c(F)c(-c2cc3cn(-c4ccc([C@@H]5CCCC[C@@H](CCSC(=N)N)N5)cc4)c(=O)nc3[nH]2)c1 [Compound 52] | ≤ 16 | ≤ 16
C[C@H](N)CCCN1C(c2cc3cn(-c4ccc([C@@H]5CCC[C@@H](CCSC(=N)N)N5)cc4)c(=O)nc3[nH]2)C[C@H]2CCCC[C@@H]21 (stereo partly shown) [Compound 53] | ≤ 16 | ≤ 16
CC(N)c1cc(Cl)c(F)c(-c2cc3cn(-c4ccc([C@@H]5CCC[C@@H](CCSC(=N)N)N5)cc4)c(=O)nc3[nH]2)c1 (stereo partly shown) [Compound 54] | ≤ 16 | ≤ 16
CCCN1[C@H](CCSC(=N)N)CCC[C@H]1c1ccc(-n2cc3cc(-c4cc(CCC[C@H](C)N)cc(Cl)c4F)[nH]c3nc2=O)cc1 [Compound 56] | ≤ 16 | ≤ 16
CO[C@@H]1CC(c2cc3cn(-c4ccc([C@@H]5CCC[C@@H](CCSC(=N)N)N5)cc4)c(=O)nc3[nH]2)N(CCC[C@H](C)N)C1 (stereo partly shown) [Compound 57] | ≤ 16 | ≤ 16
C[C@H](N)CCCN1C=C(c2cc3cn(-c4ccc([C@@H]5CCC[C@@H](CCSC(=N)N)N5)cc4)c(=O)nc3[nH]2)CCC1 [Compound 58] | ≤ 16 | ≤ 16
C[C@H](N)CCCc1cc(Cl)c(F)c(-c2cc3cn(-c4ccc([C@@H]5CCC=C[C@@H](CCSC(=N)N)N5)cc4)c(=O)nc3[nH]2)c1 [Compound 59] | ≤ 16 | ≤ 16
C[C@@H]1CNC(c2cc3cn(-c4ccc([C@@H]5CCC[C@@H](CCSC(=N)N)N5)cc4)c(=O)nc3[nH]2)C1 (stereo partly shown) [Compound 61] | ≤ 16 | ≤ 16
C[C@H](N)CCCN1C(c2cc3cn(-c4ccc([C@@H]5CCC[C@@H](CCSC(=N)N)N5)cc4)c(=O)nc3[nH]2)C[C@@H]2CCCC[C@@H]21 (stereo partly shown) [Compound 62] | ≤ 16 | ≤ 16
C[C@@H](N)CCCN1C[C@H](OCc2ccccc2)CC1c1cc2cn(-c3ccc([C@@H]4CCC[C@@H](CCSC(=N)N)N4)cc3)c(=O)nc2[nH]1 (stereo partly shown) [Compound 63] | ≤ 16 | ≤ 16
C[C@@H](N)CCCN1C[C@@H](O)CC1c1cc2cn(-c3ccc([C@@H]4CCC[C@@H](CCSC(=N)N)N4)cc3)c(=O)nc2[nH]1 (stereo partly shown) [Compound 64] | ≤ 16 | ≤ 16
C[C@@H](N)CCCN1C[C@H](N)CC1c1cc2cn(-c3ccc([C@@H]4CCC[C@@H](CCSC(=N)N)N4)cc3)c(=O)nc2[nH]1 (stereo partly shown) [Compound 65] | ≤ 16 | ≤ 16
CN[C@@H]1CC(c2cc3cn(-c4ccc([C@@H]5CCC[C@@H](CCSC(=N)N)N5)cc4)c(=O)nc3[nH]2)N(CCC[C@@H](C)N)C1 (stereo partly shown) [Compound 66] | ≤ 16 | ≤ 16
C[C@H]1CC(c2cc3cn(-c4ccc([C@@H]5CCC[C@@H](CCSC(=N)N)N5)cc4)c(=O)nc3[nH]2)N(CCC[C@@H](C)N)C1 (stereo partly shown) [Compound 67] | ≤ 16 | ≤ 16
C[C@@H](N)CCCN1C[C@H](F)CC1c1cc2cn(-c3ccc([C@@H]4CCC[C@@H](CCSC(=N)N)N4)cc3)c(=O)nc2[nH]1 (stereo partly shown) [Compound 69] | ≤ 16 | ≤ 16
C[C@@H](N)CCCN1CC(F)(F)CC1c1cc2cn(-c3ccc([C@@H]4CCC[C@@H](CCSC(=N)N)N4)cc3)c(=O)nc2[nH]1 (stereo partly shown) [Compound 71] | ≤ 16 | ≤ 16
C[C@H](N)CCCN1CCC=C(c2cc3cn(-c4ccc([C@@H]5CCC[C@@H](CCSC(=N)N)N5)cc4)c(=O)nc3[nH]2)C1 [Compound 73] | ≤ 16 | ≤ 16

Compound | MIC [1] [µg/mL] | MIC [2] [µg/mL]
C[C@@H](N)CCCN1CC(C)(C)CC1c1cc2cn(-c3ccc([C@@H]4CCC[C@@H](CCSC(=N)N)N4)cc3)c(=O)nc2[nH]1 (stereo partly shown) [Compound 74] | ≤ 16 | ≤ 16
C[C@H](N)CCCN1CC=C(c2cc3cn(-c4ccc([C@@H]5CCC[C@@H](CCSC(=N)N)N5)cc4)c(=O)nc3[nH]2)C1 [Compound 75] | ≤ 16 | ≤ 16
C[C@@H](N)CCCN1C[C@H](Cc2ccccc2)CC1c1cc2cn(-c3ccc([C@@H]4CCC[C@@H](CCSC(=N)N)N4)cc3)c(=O)nc2[nH]1 (stereo partly shown) [Compound 76] | ≤ 16 | ≤ 16
C[C@@H](N)CCCN1C(c2cc3cn(-c4ccc([C@@H]5CCC[C@@H](CCSC(=N)N)N5)cc4)c(=O)nc3[nH]2)CC[C@@H]1c1ccccc1 (stereo partly shown) [Compound 77] | > 16 | ≤ 16
CC(C[C@@H]1CCC[C@@H](c2ccc(-n3cc4cc(-c5cc(CCC[C@H](C)N)cc(Cl)c5F)[nH]c4nc3=O)cc2)N1)SC(=N)N (stereo partly shown) [Compound 78] | ≤ 16 | ≤ 16
COC[C@H](N)CCCc1cc(Cl)c(F)c(-c2cc3cn(-c4ccc([C@@H]5CCC[C@@H](CCSC(=N)N)N5)cc4)c(=O)nc3[nH]2)c1 [Compound 80] | ≤ 16 | ≤ 16
C[C@@H](N)CCCN1C[C@H](CO)CC1c1cc2cn(-c3ccc([C@@H]4CCC[C@@H](CCSC(=N)N)N4)cc3)c(=O)nc2[nH]1 (stereo partly shown) [Compound 81] | ≤ 16 | ≤ 16
CCc1cc(CCC[C@H](C)N)cc(-c2cc3cn(-c4ccc([C@@H]5CCC[C@@H](CCSC(=N)N)N5)cc4)c(=O)nc3[nH]2)c1Cl [Compound 82] | ≤ 16 | ≤ 16
CN[C@H]1CNC(c2cc3cn(-c4ccc([C@@H]5CCC[C@@H](CCSC(=N)N)N5)cc4)c(=O)nc3[nH]2)C1 (stereo partly shown) [Compound 83] | ≤ 16 | ≤ 16
CC(C)c1cc(CCC[C@H](C)N)cc(-c2cc3cn(-c4ccc([C@@H]5CCC[C@@H](CCSC(=N)N)N5)cc4)c(=O)nc3[nH]2)c1F [Compound 84] | ≤ 16 | ≤ 16
CCc1cc(CCC[C@H](C)N)cc(-c2cc3cn(-c4ccc([C@@H]5CCC[C@@H](CCSC(=N)N)N5)cc4)c(=O)nc3[nH]2)c1F [Compound 85] | ≤ 16 | ≤ 16
C[C@H](N)CCCc1cc(-c2cc3cn(-c4ccc([C@@H]5CCC[C@@H](CCSC(=N)N)N5)cc4)c(=O)nc3[nH]2)cc(C(C)(C)C)c1 [Compound 86] | ≤ 16 | ≤ 16
CCc1cc(CCC[C@H](C)N)cc(-c2cc3cn(-c4ccc([C@@H]5CCC[C@@H](CCSC(=N)N)N5)cc4)c(=O)nc3[nH]2)c1 [Compound 87] | ≤ 16 | ≤ 16
N=C(N)SCC[C@@H]1CCC[C@@H](c2ccc(-n3cc4cc(C5C[C@@H](N)CN5)[nH]c4nc3=O)cc2)N1 (stereo partly shown) [Compound 88] | ≤ 16 | ≤ 16
C[C@H](N)CCCc1cc(-c2cc3cn(-c4ccc([C@@H]5CCC[C@@H](CCSC(=N)N)N5)cc4)c(=O)nc3[nH]2)cc(C(C)(F)F)c1 [Compound 89] | ≤ 16 | ≤ 16
CC(C)CN1[C@H](CCSC(=N)N)CCC[C@H]1c1ccc(-n2cc3cc(-c4cc(CCC[C@H](C)N)cc(Cl)c4F)[nH]c3nc2=O)cc1 [Compound 90] | ≤ 16 | ≤ 16
CSCCN1[C@H](CCSC(=N)N)CCC[C@H]1c1ccc(-n2cc3cc(-c4cc(CCC[C@H](C)N)cc(Cl)c4F)[nH]c3nc2=O)cc1 [Compound 91] | ≤ 16 | ≤ 16
CC(=O)c1cc(CCC[C@H](C)N)cc(-c2cc3cn(-c4ccc([C@@H]5CCC[C@@H](CCSC(=N)N)N5)cc4)c(=O)nc3[nH]2)c1 [Compound 92] | ≤ 16 | ≤ 16
C[C@H](N)CCCc1cc(-c2cc3cn(-c4ccc([C@@H]5CCC[C@@H](CCSC(=N)N)N5)cc4)c(=O)nc3[nH]2)cc2c1CCCC2 [Compound 93] | ≤ 16 | ≤ 16
C=CCCN1[C@H](CCSC(=N)N)CCC[C@H]1c1ccc(-n2cc3cc(-c4cc(CCC[C@H](C)N)cc(Cl)c4F)[nH]c3nc2=O)cc1 [Compound 94] | ≤ 16 | ≤ 16
CC(Br)CCN1[C@H](CCSC(=N)N)CCC[C@H]1c1ccc(-n2cc3cc(-c4cc(CCC[C@H](C)N)cc(Cl)c4F)[nH]c3nc2=O)cc1 (stereo partly shown) [Compound 95] | ≤ 16 | ≤ 16
COC(=O)CN1[C@H](CCSC(=N)N)CCC[C@H]1c1ccc(-n2cc3cc(-c4cc(CCC[C@H](C)N)cc(Cl)c4F)[nH]c3nc2=O)cc1 [Compound 96] | ≤ 16 | ≤ 16

Source: patent US12234238B2, “Antimicrobial compounds and methods of making and using the same” (BIOVERSYS AG, priority 2017, dated 2025)
